The results in this text go back to patent US20060019922A1, “Selective killing of cancerous cells” (The University of North Carolina, priority 2004, published 2006).

For one assay, the system named is HEK 293 cells. The assay is described as follows: GCV sensitivity assay (luciferase) in transfected HEK 293 cells. Conditions: HEK 293 cells with TK, K2-5F and p53 vectors vs TK vector only or TK plus K2-5F vector. The assay is classed as cell-based, human. The text has this:
FIG. 6 is a graphical representation of regulation of the response to GCV by p53-induced K2-5F. Cells (HEK 293) were co-transfected with the following plasmids: pRL-2MDR-TKp-TK and pFR-2p21-K2-5F (Δ); pRL-2MDR-TKp-TK, pFR-2p21-K2-5F, and pCMV-P53-Myc (∇); or pRL-2MDR-TKp-TK and pcK2-5F (◯). The total DNA amount was adjusted by pcDNA3.1A and/or PRL-TK. A ratio of 1:20:1 between pRL-2MDR-TKp-TK, pFR-2p21-K2-5F, and pCMV-P53-Myc was used. (□) represents cells transfected with both control vectors. After twenty-four hours, cells in each well were replated uniformly into six-well plates, and after another twenty four hours, GCV was administered in varying concentrations. Luciferase activities were measured after four days of treatment with GCV. Results are expressed as a percentage of the luciferase activities at 0 GCV.
(§1) Cells were seeded in twelve-well plates and transfected as described above. […] After four days of treatment, cells were lysed, and luciferase activities or β-galactosidase activities were measured according to the manufacturer's protocol (Promega Corp., Madison, Wis., United States of America). Cell viability was estimated by luciferase activity or β-galactosidase activity, with results expressed as a percentage of the activity in the absence of GCV. […]

Another assay concerns Saos-2/p53+ cells. The assay is described as follows: Colony-formation assay with GCV in Saos-2/p53-positive cells. In kind it is cell-based, human. As to conditions: Saos 2/p53-positive cells co-transfected with pRL-2MDR-TKp-TK; especially at higher GCV concentrations. An excerpt: (§2) FIGS. 9A and 9B depict regulation of the response to GCV by K2-5F induced by endogenous p53. Saos-2/p53-negative (FIG. 9A) and Saos-2/p53-positive (FIG. 9B) cells were co-transfected with plasmid pRL-2MDR-TKp-TK without (black bars) or with (gray bars) co-transfection of pFR-2p21-K2-5F. White bars represent cells transfected with empty vectors. All cells were also transfected with a β-galactosidase-expressing plasmid. After twenty-four hours, 600 cells were re-plated in 10-cm plates, and after another twenty-four hours, GCV was administered in varying concentrations. After ten days, surviving blue colonies larger than 50 cells were counted. Survival was expressed as a percentage of colonies formed at 0 GCV. […] The x-axis indicates the concentration of GCV in micromoles. The y-axis indicates the percentage of cell survival compared with cells not treated with GCV.
(§3) Cells were transfected with the plasmids indicated, along with a β-galactosidase-expressing plasmid to mark the transfected cells. […] After 10 days, surviving blue (β-galactosidase-positive) colonies larger than 50 cells were counted. Survival was expressed as a percentage of colonies formed at 0 GCV.
(§4) The pharmacological effect of K2-5F induced by endogenous p53 in stably transfected Saos-2 cells was investigated. […] The cells were then treated with GCV, and cell viability was evaluated with the use of a colony-formation assay. […]

The next assay relates to Saos-2/p53- cells. The assay is described as follows: Colony-formation assay with GCV in Saos-2/p53-negative cells. In kind it is cell-based, human.
Excerpt: as §2, §3, §4

A further assay deals with HEK 293T cells. In words: GCV sensitivity assay (luciferase or β-galactosidase activity as cell viability) in transfected HEK 293T cells. Conditions: Homo sapiens, 96 h, four days of GCV. The assay is classed as cell-based.
Excerpt: FIG. 4 is a graphical representation of regulation of the response to GCV by constitutively expressed K2-5F. Cells (HEK 293T) were co-transfected with equal amounts of the following plasmids: pRL-2MDR-TKp-TK and pcDNA3.1A (Δ), pRL-2MDR-TKp-TK and pcK2-5F (◯), or pcDNA3.1A and PRL-TK (□). All cells were also co-transfected with a luciferase-expressing plasmid (FIG. 4A) or a β-galactosidase-expressing plasmid (FIG. 4B) as a marker. After twenty-four hours, cells in each well were re-plated evenly into six-well plates, and in another twenty four hours, GCV was administered in varying concentrations. Luciferase (FIG. 4A) or β-galactosidase (FIG. 4B) activities were measured after four days of treatment by GCV. Results are expressed as a percentage of the enzymatic activities at 0 GCV for each set of plasmids.
as §1

For the compound `Nc1nc(O)c2ncn(COC(CO)CO)c2n1` [GCV, ganciclovir], the “right shift of the dose-response profile” value in the assay on HEK 293 cells is recorded as “approximately 1 log”. Also, the “effect of K2-5F-expressing plasmid on the dose-survival curve for GCV” value is recorded as “substantial protective effect” in the assay on Saos-2/p53+ cells and “no effect” in the assay on Saos-2/p53- cells (Saos2/p53-negative cells co-transfected with pRL-2MDR-TKp-TK, colonies after 10 days). In the assay with Saos-2/p53- cells (Saos-2 cells compared with HEK 293 cells), the “concentration of GCV required to attain toxicity” value was “higher concentration”. The IC50 was about 10 µM in the assay on HEK 293T cells (HEK 293T cells transfected with both pRL-2MDR-TKp-TK and pcK2-5F); about 0.2 µM in the assay with HEK 293T cells (HEK 293T cells transfected with pRL-2MDR-TKp-TK alone).

A word on the IC50: it is the concentration needed to halve the response being measured. A higher IC50 goes with weaker potency in that assay.
